Data set [1] can be described thus: Plasma pharmacokinetics after single and multiple doses. It counts as in vivo, Japanese patients.
Data set [2] has as its system relapsed/refractory (R/R) AML. The following applies: cited from earlier work.
The subject of another data set is FLT3. The following applies: preclinical studies; cited from earlier work.
Data set [3] concerns anaplastic lymphoma kinase. The following applies: preclinical studies; cited from earlier work.
The test system of data set [4] is FLT3 receptors expressing FLT3-ITD. The following applies: leukemic cells; cited from earlier work.

As to `CCc1nc(C(N)=O)c(Nc2ccc(N3CCC(N4CCN(C)CC4)CC3)c(OC)c2)nc1NC1CCOCC1` [gilteritinib], the “accumulation relative to baseline” value in data set [1] (after multiple dose administration) is approximately 8 fold. In data set [1] (human, plasma, oral), this compound had a half-life of 84 to 126 h. The time to peak (Tmax) in data set [1] (human, plasma, oral, Median tmax, after administration of single or multiple doses) lay within 3 to 7 h. In data set [1] (once-daily dosing, Day 1 Cycle 1 through Day 1 Cycle 2), the “achievement of steady-state gilteritinib plasma concentrations (mean trough concentrations)” value is “by Day 15 Cycle 1”. Further, in data set [1] (single-dose and multiple-dose), the exposure versus dose entry was “increased in a dose‐proportional manner”. For the same compound, in data set [2] (doses ≥80 mg/d), the “median OS duration” value was 31 weeks and the “overall response rate (ORR)” value is 52%. In data set [2] (once-daily oral, R/R AML, USA, Germany and Italy), the “maximum tolerated dose (MTD)” value was 300 mg/day. Moreover, the “inhibition of FLT3” value in the data set with FLT3 is given as “robust inhibitor”. The “inhibition of anaplastic lymphoma kinase” value in data set [3] is given as “robust inhibitor”. In addition, the “inhibition of FLT3 receptors expressing FLT3-ITD” value in data set [4] was “strongly inhibited”.
